ChEMBL document CHEMBL1201862, “PubChem BioAssay data set” (2004)
Active and inactive are the calls of the source.

How the values were obtained:
[1] = biological target: T1, DNA repair protein RAD52 homolog (Homo sapiens, UniProt P43351); type: functional, biochemical
T1 sequence (P43351 whole entry): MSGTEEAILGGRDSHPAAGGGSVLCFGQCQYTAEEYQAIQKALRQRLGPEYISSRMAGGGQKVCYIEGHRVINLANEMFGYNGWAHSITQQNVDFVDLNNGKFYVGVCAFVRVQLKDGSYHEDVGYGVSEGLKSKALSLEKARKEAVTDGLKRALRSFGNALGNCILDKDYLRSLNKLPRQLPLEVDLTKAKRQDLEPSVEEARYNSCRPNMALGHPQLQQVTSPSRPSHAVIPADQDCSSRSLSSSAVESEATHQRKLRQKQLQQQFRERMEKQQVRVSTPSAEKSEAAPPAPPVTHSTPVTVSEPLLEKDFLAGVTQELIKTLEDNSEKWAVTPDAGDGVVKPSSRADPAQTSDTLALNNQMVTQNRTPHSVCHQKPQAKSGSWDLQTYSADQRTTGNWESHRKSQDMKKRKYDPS

[2] = biological target: Glycogen synthase kinase-3 alpha (Homo sapiens, UniProt P49840); experiment: GSK3A enzyme blockers, homolog specificity check – biochemical, microfluidics, dry powder samples, set 2, selectivity assay for GSK3beta inhibitor project, dose response (AID 623978); type: functional
Sequence of Glycogen synthase kinase-3 alpha (P49840 whole entry): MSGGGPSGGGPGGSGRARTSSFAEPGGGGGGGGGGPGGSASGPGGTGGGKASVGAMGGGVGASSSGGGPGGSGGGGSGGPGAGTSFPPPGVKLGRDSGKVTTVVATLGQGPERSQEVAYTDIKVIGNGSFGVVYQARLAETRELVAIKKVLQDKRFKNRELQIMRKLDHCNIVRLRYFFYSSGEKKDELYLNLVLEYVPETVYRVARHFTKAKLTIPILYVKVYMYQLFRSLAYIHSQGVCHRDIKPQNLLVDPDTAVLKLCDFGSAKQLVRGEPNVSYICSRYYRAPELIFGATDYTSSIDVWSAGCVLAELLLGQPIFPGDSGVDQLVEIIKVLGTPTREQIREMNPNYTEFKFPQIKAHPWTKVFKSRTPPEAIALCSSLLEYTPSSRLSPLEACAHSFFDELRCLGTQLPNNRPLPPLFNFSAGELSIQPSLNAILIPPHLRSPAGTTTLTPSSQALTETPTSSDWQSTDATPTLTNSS

[3] = biological target: Cyclin-dependent kinase 5/CDK5 activator 1 (Homo sapiens, UniProt Q00535); experiment: inhibitors of human CDK5 activity – biochemical, microfluidic mobility shift, dry powder, set 2, selectivity assay for GSK3beta inhibitor project, dose response (AID 623979); type: functional
Sequence of Cyclin-dependent kinase 5/CDK5 activator 1 (Q00535 whole entry): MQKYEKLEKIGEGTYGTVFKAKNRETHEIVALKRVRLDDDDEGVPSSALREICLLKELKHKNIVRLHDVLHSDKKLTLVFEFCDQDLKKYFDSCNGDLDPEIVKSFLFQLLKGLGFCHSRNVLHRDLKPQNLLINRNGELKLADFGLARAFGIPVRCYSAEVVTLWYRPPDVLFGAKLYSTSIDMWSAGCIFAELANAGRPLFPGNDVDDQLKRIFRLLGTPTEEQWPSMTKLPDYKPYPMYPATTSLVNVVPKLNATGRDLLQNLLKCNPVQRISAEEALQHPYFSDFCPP
Sequence of Cyclin-dependent kinase 5/CDK5 activator 1 (Q15078 whole entry, further chain): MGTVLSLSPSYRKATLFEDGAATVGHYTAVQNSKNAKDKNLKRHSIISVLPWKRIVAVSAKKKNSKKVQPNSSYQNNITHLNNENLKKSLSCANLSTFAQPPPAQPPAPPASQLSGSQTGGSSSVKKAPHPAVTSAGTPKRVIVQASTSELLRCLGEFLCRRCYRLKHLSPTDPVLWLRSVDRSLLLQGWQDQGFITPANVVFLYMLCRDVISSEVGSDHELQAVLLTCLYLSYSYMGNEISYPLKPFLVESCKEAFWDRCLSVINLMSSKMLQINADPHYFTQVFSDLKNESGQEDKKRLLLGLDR

[4] = biological target: Glycogen synthase kinase-3 beta (Homo sapiens, UniProt P49841); experiment: inhibition of human GSK3B activity – biochemical, microfluidics, dry powder samples, set 2, dose response (AID 623989); type: functional
Sequence of Glycogen synthase kinase-3 beta (P49841 whole entry): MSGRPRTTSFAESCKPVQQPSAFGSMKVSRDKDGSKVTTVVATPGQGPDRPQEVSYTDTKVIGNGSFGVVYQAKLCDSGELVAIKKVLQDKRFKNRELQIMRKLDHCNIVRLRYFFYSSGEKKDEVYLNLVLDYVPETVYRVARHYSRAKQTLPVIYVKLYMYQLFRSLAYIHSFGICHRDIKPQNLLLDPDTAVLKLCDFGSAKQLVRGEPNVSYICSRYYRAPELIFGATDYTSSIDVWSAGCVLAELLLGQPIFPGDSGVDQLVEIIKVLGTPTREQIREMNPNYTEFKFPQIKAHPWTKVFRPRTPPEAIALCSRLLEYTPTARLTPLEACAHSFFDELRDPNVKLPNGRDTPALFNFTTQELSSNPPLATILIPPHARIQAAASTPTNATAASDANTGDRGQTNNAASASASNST

[5] = biological target: T2, Benomyl/methotrexate resistance protein (Candida albicans, UniProt P28873); experiment: Candida albicans Mdr1 pump blockade titration – singleplex, Cherry Pick2 set, dose response (AID 623992); type: functional; conditions: read-out: EC50_MICROM
T2 sequence (P28873 whole entry): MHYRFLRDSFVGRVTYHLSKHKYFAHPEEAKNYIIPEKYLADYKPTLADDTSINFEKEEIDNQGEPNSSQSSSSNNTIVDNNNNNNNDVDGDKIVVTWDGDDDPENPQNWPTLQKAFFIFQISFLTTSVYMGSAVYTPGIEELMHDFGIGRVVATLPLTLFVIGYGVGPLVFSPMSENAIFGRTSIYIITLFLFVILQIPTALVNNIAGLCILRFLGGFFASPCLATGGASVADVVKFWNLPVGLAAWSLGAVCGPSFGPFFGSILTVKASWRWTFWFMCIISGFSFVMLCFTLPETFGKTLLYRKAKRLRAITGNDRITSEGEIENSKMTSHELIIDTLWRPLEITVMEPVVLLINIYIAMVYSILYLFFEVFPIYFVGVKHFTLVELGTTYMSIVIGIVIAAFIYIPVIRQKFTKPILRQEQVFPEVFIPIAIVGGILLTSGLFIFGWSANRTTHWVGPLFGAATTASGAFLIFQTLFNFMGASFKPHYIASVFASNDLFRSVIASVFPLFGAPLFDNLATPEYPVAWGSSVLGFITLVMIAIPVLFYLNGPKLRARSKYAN

[6] = biological target: T3, Multidrug resistance protein CDR1 (Candida albicans, UniProt P43071); experiment: inhibition of Nile Red efflux via Candida CDR1 – S. cerevisiae AD1-8u, singleplex, Cherry Pick1 hits, dose response (AID 588606); type: functional
T3 sequence (P43071 whole entry, looked up): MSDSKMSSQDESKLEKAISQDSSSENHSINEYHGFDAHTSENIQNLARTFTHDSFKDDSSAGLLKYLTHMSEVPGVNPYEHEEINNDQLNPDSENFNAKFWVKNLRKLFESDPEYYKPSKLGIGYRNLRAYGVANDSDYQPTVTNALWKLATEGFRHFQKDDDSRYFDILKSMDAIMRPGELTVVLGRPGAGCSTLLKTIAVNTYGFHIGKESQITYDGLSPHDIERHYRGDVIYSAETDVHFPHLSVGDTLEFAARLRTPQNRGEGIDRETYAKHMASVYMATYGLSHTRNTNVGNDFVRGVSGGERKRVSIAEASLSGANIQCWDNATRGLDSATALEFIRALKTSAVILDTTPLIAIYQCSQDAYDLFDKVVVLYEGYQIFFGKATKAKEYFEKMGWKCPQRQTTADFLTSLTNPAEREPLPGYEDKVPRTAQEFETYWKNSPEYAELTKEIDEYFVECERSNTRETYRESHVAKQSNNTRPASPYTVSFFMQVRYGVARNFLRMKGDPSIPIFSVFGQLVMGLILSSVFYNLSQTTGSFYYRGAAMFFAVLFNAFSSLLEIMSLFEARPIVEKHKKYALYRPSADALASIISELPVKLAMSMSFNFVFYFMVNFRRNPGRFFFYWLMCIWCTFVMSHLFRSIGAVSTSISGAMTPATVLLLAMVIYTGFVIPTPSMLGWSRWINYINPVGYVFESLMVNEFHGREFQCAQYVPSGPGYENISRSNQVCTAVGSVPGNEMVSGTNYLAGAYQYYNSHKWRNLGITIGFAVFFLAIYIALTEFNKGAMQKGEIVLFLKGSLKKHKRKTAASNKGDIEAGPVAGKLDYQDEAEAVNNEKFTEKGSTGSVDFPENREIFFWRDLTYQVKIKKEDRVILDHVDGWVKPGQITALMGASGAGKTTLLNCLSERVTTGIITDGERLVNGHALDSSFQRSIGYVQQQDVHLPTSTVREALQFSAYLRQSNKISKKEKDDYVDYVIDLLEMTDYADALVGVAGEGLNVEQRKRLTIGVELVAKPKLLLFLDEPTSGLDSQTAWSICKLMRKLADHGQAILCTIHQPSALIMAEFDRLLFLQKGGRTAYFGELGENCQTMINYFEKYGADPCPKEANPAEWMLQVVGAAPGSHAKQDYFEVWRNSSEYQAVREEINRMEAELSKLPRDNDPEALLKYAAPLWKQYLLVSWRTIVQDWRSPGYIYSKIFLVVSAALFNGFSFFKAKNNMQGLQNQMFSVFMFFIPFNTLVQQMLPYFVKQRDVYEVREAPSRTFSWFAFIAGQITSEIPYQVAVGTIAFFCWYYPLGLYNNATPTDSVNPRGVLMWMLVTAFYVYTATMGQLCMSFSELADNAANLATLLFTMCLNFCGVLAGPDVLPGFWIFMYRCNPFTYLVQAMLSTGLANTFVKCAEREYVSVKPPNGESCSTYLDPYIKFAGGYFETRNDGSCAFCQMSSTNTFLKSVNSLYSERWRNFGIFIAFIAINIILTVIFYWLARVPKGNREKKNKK

[7] = biological target: T2, Benomyl/methotrexate resistance protein; experiment: Candida albicans Mdr1 pump inhibition curves – singleplex, Cherry Pick1 hits, dose response (AID 588608); type: functional
[8] = biological target: T3, Multidrug resistance protein CDR1; experiment: Candida albicans Cdr1 pump inhibition curves – singleplex, Cherry Pick2 set, dose response (AID 623996); type: functional; conditions: read-out: EC50_MICROM
[9] = THP-1 cell cytotoxicity, cytotoxicity control, set 4 (AID 504911); type: functional; conditions: Mycobacterium tuberculosis
[10] = Vero cell cytotoxicity, dose response, cytotoxicity control for M. tuberculosis growth inhibitor project, Vero cells, purified and synthesized compounds, set 4 (AID 504854); type: functional; conditions: Mycobacterium tuberculosis
[11] = Vero cell cytotoxicity, dose response, cytotoxicity control for M. tuberculosis growth inhibitor project, Vero cells, purified and synthesized compounds, set 5 (AID 504909); type: functional; conditions: Mycobacterium tuberculosis
[12] = biological target: Neuropeptides B/W receptor type 1 (Homo sapiens, UniProt P48145); experiment: human NPBW1 receptor blockade, IC50 – cell-based, fluorescence, dose response, set 6, late-stage follow-up (AID 588583); type: functional
Sequence of Neuropeptides B/W receptor type 1 (P48145 whole entry): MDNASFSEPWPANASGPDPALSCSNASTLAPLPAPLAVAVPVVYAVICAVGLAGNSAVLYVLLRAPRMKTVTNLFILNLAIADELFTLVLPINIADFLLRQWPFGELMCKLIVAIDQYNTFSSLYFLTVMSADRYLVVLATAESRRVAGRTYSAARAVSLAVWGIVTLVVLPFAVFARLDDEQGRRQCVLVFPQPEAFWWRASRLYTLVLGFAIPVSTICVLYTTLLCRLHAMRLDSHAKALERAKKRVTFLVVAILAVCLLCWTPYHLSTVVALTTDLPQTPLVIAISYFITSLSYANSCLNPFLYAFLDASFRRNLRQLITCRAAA

[13] = biological target: Melanin-concentrating hormone receptor 1 (Homo sapiens, UniProt Q99705); experiment: Late-stage fluorescence-based counterscreen for antagonists of the G-protein coupled receptor 7 (GPR7): cell-based dose response assay to identify antagonists of the melanin-concentrating hormone receptor 1 (MCHR1) Set 6.; type: functional
Sequence of Melanin-concentrating hormone receptor 1 (Q99705 whole entry): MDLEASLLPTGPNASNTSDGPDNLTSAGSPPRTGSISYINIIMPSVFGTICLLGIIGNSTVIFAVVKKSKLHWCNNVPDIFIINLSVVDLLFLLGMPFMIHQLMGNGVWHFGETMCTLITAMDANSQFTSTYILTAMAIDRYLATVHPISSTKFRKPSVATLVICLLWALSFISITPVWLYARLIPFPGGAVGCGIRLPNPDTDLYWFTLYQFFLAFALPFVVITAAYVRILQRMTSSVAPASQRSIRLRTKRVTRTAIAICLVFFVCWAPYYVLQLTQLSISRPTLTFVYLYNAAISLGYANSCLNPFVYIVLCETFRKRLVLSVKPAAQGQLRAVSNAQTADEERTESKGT

COc1cccc(/C=C2/Sc3ccc(C(=O)NCCCN4CCCC4)cc3NC2=O)c1
active: AC50 [1] 4.47 µM | AC50 [2] 38.9 µM | AC50 [3] 7.91 µM | AC50 [4] 4.46 µM

Cc1noc(C)c1C(=O)N1CCC2(CC1)Oc1ccc(F)cc1C(=O)C21CC(c2ccc(Cl)cc2)=NO1 (stereo not drawn)
active: EC50 [5] 16.9 µM | EC50 [6] 11.5 µM | EC50 [7] 15.6 µM | EC50 [8] 26.8 µM

Oc1nc(SCc2ccccc2Cl)nc2c1CCCC2
active: CC50 [9] > 100 µM | CC50 [10] > 100 µM | CC50 [11] > 100 µM

O=c1c(-c2ccc(F)cc2)c(Br)cnn1Cc1cccc2ccccc12
active: IC50 [12] 2.24 µM | IC50 [13] 2.24 µM
